Data on ten compounds can be found in ChEMBL document CHEMBL5143758, “2-Amino-1,3,4-thiadiazoles as Glutaminyl Cyclases Inhibitors Increase Phagocytosis through Modification of CD47-SIRPα Checkpoint” (ACS Med Chem Lett, 2022).

Chain of Glutaminyl-peptide cyclotransferase (Q16769 whole entry): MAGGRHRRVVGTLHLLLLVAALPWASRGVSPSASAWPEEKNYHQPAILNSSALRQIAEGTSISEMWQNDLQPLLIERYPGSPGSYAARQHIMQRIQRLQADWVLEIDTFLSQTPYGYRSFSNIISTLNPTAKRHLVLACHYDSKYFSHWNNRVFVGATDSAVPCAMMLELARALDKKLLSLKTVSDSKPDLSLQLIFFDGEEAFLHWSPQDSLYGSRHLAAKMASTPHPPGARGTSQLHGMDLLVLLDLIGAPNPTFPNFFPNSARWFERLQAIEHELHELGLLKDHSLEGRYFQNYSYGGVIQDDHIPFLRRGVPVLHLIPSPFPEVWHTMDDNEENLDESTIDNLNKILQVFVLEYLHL

One test addresses Glutaminyl-peptide cyclotransferase (Homo sapiens, UniProt Q16769).
Description: Inhibition of recombinant human QC using H-Gln-AMC hydrobromide as fluorogenic substrate incubated for 6 hrs by fluorometric microplate reader analysis
The IC50 is the concentration that inhibits the measured activity by half. In turn, `Cc1c[nH]cn1` gave an IC50 of 110 µM.
Still for that read-out and setting: under `O=C(O)c1ccc2cccc(O)c2n1` stands 203 µM.
Same read-out and setting: under `Cc1cncn1-c1ccccc1` stands 144 µM.
On the same count and under the same terms, in the case of `Cn1cccc(O)c1=O` it was 772 µM; in that of `O=c1ccocc1O`, 232 µM.
For the compound `Sc1nc2ccccc2[nH]1` [2-MERCAPTOBENZIMIDAZOLE], inhibition was half-maximal at 551 µM (IC50).
Still for that read-out and setting: under `Oc1ccccc1O` [CATECHOL] stands 5 µM; under `Oc1cccc2cccnc12` [OXYQUINOLINE], 208 µM; under `O=C1CNC(=S)N1` [THIOHYDANTOIN], 390 µM.

For the next test, the target named is Glutaminyl-peptide cyclotransferase-like protein (Homo sapiens, UniProt Q9NXS2). Put plainly: Inhibition of recombinant human isoQC using H-Gln-AMC hydrobromide as fluorogenic substrate incubated for 6 hrs by fluorometric microplate reader analysis.
Chain of Glutaminyl-peptide cyclotransferase-like protein (Q9NXS2 whole entry): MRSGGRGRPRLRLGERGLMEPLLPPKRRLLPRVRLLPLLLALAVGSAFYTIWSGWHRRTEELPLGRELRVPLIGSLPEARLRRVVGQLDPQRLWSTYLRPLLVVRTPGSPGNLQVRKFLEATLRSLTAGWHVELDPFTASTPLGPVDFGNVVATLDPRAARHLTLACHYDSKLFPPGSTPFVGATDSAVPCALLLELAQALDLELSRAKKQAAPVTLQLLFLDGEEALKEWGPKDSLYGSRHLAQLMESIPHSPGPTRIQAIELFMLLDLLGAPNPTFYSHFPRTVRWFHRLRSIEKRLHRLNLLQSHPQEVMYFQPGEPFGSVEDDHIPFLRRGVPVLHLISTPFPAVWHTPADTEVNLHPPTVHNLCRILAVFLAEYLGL
With `COc1ccc(NC(=S)NCCCn2ccnc2)cc1OC`, the IC50 stood at 0.351 µM.
